One experiment concerns the target T1, Recombinant human FAP (Homo sapiens, UniProt Q12884).
T1 construct: purchased R&D systems
T1 sequence (Q12884 1-760): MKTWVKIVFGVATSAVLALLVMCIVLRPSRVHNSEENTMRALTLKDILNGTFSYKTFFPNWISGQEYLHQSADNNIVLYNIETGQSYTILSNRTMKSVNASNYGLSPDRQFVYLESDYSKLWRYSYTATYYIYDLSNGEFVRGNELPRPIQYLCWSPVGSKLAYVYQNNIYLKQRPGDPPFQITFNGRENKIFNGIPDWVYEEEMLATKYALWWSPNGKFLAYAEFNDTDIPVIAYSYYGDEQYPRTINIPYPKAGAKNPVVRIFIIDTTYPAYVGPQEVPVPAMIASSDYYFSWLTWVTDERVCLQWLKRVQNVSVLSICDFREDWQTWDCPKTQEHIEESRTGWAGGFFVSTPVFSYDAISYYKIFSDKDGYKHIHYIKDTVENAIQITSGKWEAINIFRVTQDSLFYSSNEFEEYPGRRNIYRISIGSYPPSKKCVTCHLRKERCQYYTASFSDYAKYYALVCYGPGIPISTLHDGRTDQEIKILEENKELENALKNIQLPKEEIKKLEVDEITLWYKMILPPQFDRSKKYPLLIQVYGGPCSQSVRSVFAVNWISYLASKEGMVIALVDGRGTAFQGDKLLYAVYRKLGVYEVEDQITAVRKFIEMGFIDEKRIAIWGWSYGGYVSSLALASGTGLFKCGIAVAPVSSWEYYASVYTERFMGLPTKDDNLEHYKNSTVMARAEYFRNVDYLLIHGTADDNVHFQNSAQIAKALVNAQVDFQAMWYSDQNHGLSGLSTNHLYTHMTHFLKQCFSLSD
In words: FAP FRET assay, FGF21-sequence FRET peptide substrate. The experiment is classed as biochemical. The conditions noted are these: FRET peptide with human FGF21 sequence, 6 μM, 37° C. An outline of the steps:
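FRET peptide bearing human FGF21 sequence (6 μM final) cleaved by 10 ng recombinant human FAP at 37° C in HEPES pH 7.2 buffer with NaCl, BSA and EDTA, DMSO up to 0.1%. Signal-rate decrease versus uninhibited control fitted to a four-variable logistic model for IC50.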

The target in another experiment is DPP4 (Homo sapiens, UniProt P27487). In words: DPP4 inhibition, fluorogenic substrate H-Gly-Pro-AMC. The conditions noted are these: recombinant human DPP4. The experiment is classed as biochemical. Also noted: purchased R&D Systems.

Each structure is given as a SMILES string. Where only a bound is given, the exact number is not on record here.

Usually IC50 stands for the concentration that inhibits the measured activity by half.

Chain of DPP4 (P27487 whole entry): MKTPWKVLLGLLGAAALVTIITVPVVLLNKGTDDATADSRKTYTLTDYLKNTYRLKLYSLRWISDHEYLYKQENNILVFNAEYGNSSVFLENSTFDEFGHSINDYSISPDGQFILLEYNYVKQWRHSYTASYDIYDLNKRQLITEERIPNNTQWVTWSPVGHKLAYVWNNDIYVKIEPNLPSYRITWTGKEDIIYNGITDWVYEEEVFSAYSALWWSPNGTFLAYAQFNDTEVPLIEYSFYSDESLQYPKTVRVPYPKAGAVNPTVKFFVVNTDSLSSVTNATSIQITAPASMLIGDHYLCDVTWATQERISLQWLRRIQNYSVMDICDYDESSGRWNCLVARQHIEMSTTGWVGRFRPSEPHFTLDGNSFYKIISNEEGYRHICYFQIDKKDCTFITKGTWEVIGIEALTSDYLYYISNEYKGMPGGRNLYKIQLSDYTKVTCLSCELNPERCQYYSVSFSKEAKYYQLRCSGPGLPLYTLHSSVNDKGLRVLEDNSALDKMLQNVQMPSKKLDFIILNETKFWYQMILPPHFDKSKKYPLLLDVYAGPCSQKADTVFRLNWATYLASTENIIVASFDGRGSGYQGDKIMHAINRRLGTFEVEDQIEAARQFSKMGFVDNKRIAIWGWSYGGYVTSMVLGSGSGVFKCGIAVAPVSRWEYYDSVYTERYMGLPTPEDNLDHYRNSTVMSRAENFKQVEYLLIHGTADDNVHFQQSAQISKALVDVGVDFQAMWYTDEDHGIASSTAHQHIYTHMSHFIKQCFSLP

For the compound `COc1ccc2c(N[C@@H]3CCN(CC(=O)N4C[C@@H](F)C[C@H]4C#N)C3)ccnc2c1` [Example 193, (2S,4S)-4-fluoro-1-[2-[(3R)-3-[(7-methoxy-4-quinolyl)amino]pyrrolidin-1-yl]acetyl]pyrrolidine-2-carbonitrile], the IC50 on Recombinant human FAP worked out at 24.4 nM; at DPP4, 9090 nM.
Regarding `N#C[C@@H]1CCCN1C(=O)CN1CC[C@@H](Nc2ccnc3ccc(Cl)cc23)C1` [Example 226, (2S)-1-[2-[(3R)-3-[(6-chloro-4-quinolyl)amino]pyrrolidin-1-yl]acetyl]pyrrolidine-2-carbonitrile], the half-inhibitory concentration (IC50) worked out at 4.8 nM at Recombinant human FAP and 37900 nM at DPP4.
Turning to `N#C[C@@H]1CCCN1C(=O)CN1CC[C@@H](Nc2ccc3nc(C(F)(F)F)ccc3c2)C1` [Example 217, (2S)-1-[2-[(3R)-3-[[2-(trifluoromethyl)-6-quinolyl]amino]pyrrolidin-1-yl]acetyl]pyrrolidine-2-carbonitrile], the half-inhibitory concentration (IC50) at Recombinant human FAP amounted to 8.8 nM; at DPP4, 29000 nM.
In the case of `COc1ccc2nccc(N[C@@H]3CCN(CC(=O)N4CCC[C@H]4C#N)C3)c2c1` [Example 224, (2S)-1-[2-[(3R)-3-[(6-methoxy-4-quinolyl)amino]pyrrolidin-1-yl]acetyl]pyrrolidine-2-carbonitrile], the IC50 amounted to 10 nM at Recombinant human FAP and 54200 nM at DPP4.
The like results for `COc1ccc2cc(NC3CCN(CC(=O)N4C[C@@H](F)C[C@H]4C#N)CC3)cnc2c1` [Example 366, (2S,4S)-4-fluoro-1-[2-[4-[(7-methoxy-3-quinolyl)amino]-1-piperidyl]acetyl]pyrrolidine-2-carbonitrile] were, in that order, 36 nM and not below 10000 nM.
With `CN(Cc1ccccc1)C(=O)c1ccc(NC2CCN(CC(=O)N3C[C@@H](F)C[C@H]3C#N)CC2)c2cccnc12` [Example 393, N-benzyl-N-methyl-5-[[1-[2-oxo-2-[(2S,4S)-2-cyano-4-fluoro-pyrrolidin-1-yl]ethyl]-4-piperidyl]amino]quinoline-8-carboxamide], the IC50 worked out at 43.8 nM at Recombinant human FAP and 3310 nM at DPP4.
In the same order, the values of `Cc1ccc2ncc(N(C)C3CCN(CC(=O)N4C[C@@H](F)C[C@H]4C#N)CC3)cc2c1` [Example 326, (2S,4S)-4-fluoro-1-[2-[4-[methyl-(6-methyl-3-quinolyl)amino]-1-piperidyl]acetyl]pyrrolidine-2-carbonitrile] are 8.8 nM and 50600 nM.
The like results for `Cc1ccc2c(OC3CCN(CC(=O)N4C[C@@H](F)C[C@H]4C#N)CC3)ccnc2c1` [Example 432, (2S,4S)-4-fluoro-1-[2-[4-[(7-methyl-4-quinolyl)oxy]-1-piperidyl]acetyl]pyrrolidine-2-carbonitrile] were, in that order, 19.8 nM and 6580 nM.
Consider `N#C[C@@H]1C[C@H](F)CN1C(=O)CN1CC[C@@H](Nc2ccnc3ccc(F)cc23)C1` [Example 191, (2S,4S)-4-fluoro-1-[2-[(3R)-3-[(6-fluoro-4-quinolyl)amino]pyrrolidin-1-yl]acetyl]pyrrolidine-2-carbonitrile], for which the figures for the IC50 at Recombinant human FAP and at DPP4 were 19.4 nM and 3220 nM, respectively.
In the same order, the values of `N#C[C@@H]1C[C@H](F)CN1C(=O)CN1CC[C@H](Nc2cnc3nc(Cl)ccc3c2)C1` [Example 273, (2S,4S)-4-fluoro-1-[2-[(3S)-3-[(7-chloro-1,8-naphthyridin-3-yl)amino]pyrrolidin-1-yl]acetyl]pyrrolidine-2-carbonitrile] are 19 nM and 530 nM.
In the same order, the values of `N#C[C@@H]1C[C@H](F)CN1C(=O)CN1CCC(Nc2cnc3nc(Cl)ccc3c2)CC1` [Example 369, (2S,4S)-1-[2-[4-[(7-chloro-1,8-naphthyridin-3-yl)amino]-1-piperidyl]acetyl]-4-fluoro-pyrrolidine-2-carbonitrile] are 62.1 nM and not below 10000 nM.
In the same order, the values of `N#C[C@@H]1C[C@H](F)CN1C(=O)CN1CCC(Nc2cc(F)c3ncccc3c2)CC1` [Example 375, (2S,4S)-4-fluoro-1-[2-[4-[(8-fluoro-6-quinolyl)amino]-1-piperidyl]acetyl]pyrrolidine-2-carbonitrile] are 22.9 nM and 6960 nM.
For the compound `COc1ccnc2ccc(NC3CCN(CC(=O)N4C[C@@H](F)C[C@H]4C#N)CC3)cc12` [Example 382, (2S,4S)-4-fluoro-1-[2-[4-[(4-methoxy-6-quinolyl)amino]-1-piperidyl]acetyl]pyrrolidine-2-carbonitrile], the half-maximal inhibitory concentration (IC50) at Recombinant human FAP worked out at 80 nM; at DPP4, 3150 nM.
In the case of `N#C[C@@H]1C[C@H](F)CN1C(=O)CN1CC[C@@H](Nc2ccnc3c(C(F)(F)F)cccc23)C1` [Example 196, (2S,4S)-4-fluoro-1-[2-[(3R)-3-[[8-(trifluoromethyl)-4-quinolyl]amino]pyrrolidin-1-yl]acetyl]pyrrolidine-2-carbonitrile], the half-maximal inhibitory concentration (IC50) on Recombinant human FAP came to 7.4 nM; at DPP4 it was 3840 nM.
The like results for `COc1ccc2ncc(NC3CCN(CC(=O)N4C[C@@H](F)C[C@H]4C#N)CC3)cc2c1` [Example 365, (2S,4S)-4-fluoro-1-[2-[4-[(6-methoxy-3-quinolyl)amino]-1-piperidyl]acetyl]pyrrolidine-2-carbonitrile] were, in that order, 22.3 nM and not below 10000 nM.
As to `COc1cccc2cc(N(C)C3CCN(CC(=O)N4CCC[C@H]4C#N)CC3)cnc12` [Example 325, (2S)-1-[2-[4-[methyl-(8-methoxy-3-quinolyl)amino]-1-piperidyl]acetyl]pyrrolidine-2-carbonitrile], the results for the 50% inhibitory concentration (IC50) on Recombinant human FAP and on DPP4 were 8.9 nM and not below 100000 nM, respectively.
The like results for `CN(C(=O)c1ccc(N[C@H]2CCN(CC(=O)N3CCC[C@H]3C#N)C2)c2cccnc12)c1ccccc1` [Example 289, N-methyl-N-phenyl-5-[[(3S)-1-[2-oxo-2-[(2S)-2-cyanopyrrolidin-1-yl]ethyl]pyrrolidin-3-yl]amino]quinoline-8-carboxamide] were, in that order, 36.3 nM and 14200 nM.
Regarding `COc1cccc2cc(N(C)C3CCN(CC(=O)N4C[C@@H](F)C[C@H]4C#N)CC3)cnc12` [Example 329, (2S,4S)-4-fluoro-1-[2-[4-[(8-methoxy-3-quinolyl)-methyl-amino]-1-piperidyl]acetyl]pyrrolidine-2-carbonitrile], the half-maximal inhibitory concentration (IC50) on Recombinant human FAP amounted to 7.5 nM; at DPP4 it was 26300 nM.
As to `CCOc1ccc(NC2CCN(CC(=O)N3CCC[C@H]3C#N)CC2)c2cccnc12` [Example 370, (2S)-1-[2-[4-[(8-ethoxy-5-quinolyl)amino]-1-piperidyl]acetyl]pyrrolidine-2-carbonitrile], the half-maximal inhibitory concentration (IC50) was determined as 11 nM at Recombinant human FAP and 36800 nM on DPP4.
In the same order, the values of `CN(c1cc(F)cc2ncccc12)[C@H]1CCN(CC(=O)N2C[C@@H](F)C[C@H]2C#N)C1` [Example 157, (2S,4S)-4-fluoro-1-(2-((S)-3-((7-fluoroquinolin-5-yl)(methyl)amino)pyrrolidin-1-yl)acetyl)pyrrolidine-2-carbonitrile] are 20.2 nM and 2160 nM.
The like results for `Cc1ccc2nccc(N[C@@H]3CCN(CC(=O)N4CCC[C@H]4C#N)C3)c2c1` [Example 223, (2S)-1-[2-[(3R)-3-[(6-methyl-4-quinolyl)amino]pyrrolidin-1-yl]acetyl]pyrrolidine-2-carbonitrile] were, in that order, 13.1 nM and 92500 nM.

For the origin of these results see US11655235B2, “Pyrrolidine and piperidine compounds” (YUHAN CORPORATION, priority 2019, dated 2023).
